Measured values taken from patent publication US10905683B2, “Compositions and uses of amidine derivatives” (BIOCRYST PHARMACEUTICALS, INC., priority 2014, dated 2021).
Values after ≈ are worked out from the molar mass of the structure shown. Values joined by “and” are separate entries in the source; they are usually repeats but may differ in a detail not shown here. Equal entries are not always repeated. Where two headings read alike, the source gives them in different places.

Assays:
[1] = Solubility in surfactant solutions; assay type: physicochemical
Protocol: The solubility of the compound of Example 1 in a range of surfactants was measured. Solubility assays were performed by the sequential addition of the compound of Example 1 to an appropriate organic solvent while stirring vigorously until a precipitate is formed. The resulting suspension is then shaken for 24 hours at room temperature, filtered and the resulting solution was analyzed by appropriate analytical method. Quantitation was performed by comparison of the concentrations of the resulting solution of the compound of Example 1 to a single point calibration curve using a solution of the reference standard.

[2] = Aqueous solubility assay in buffer and simulated gastric/intestinal fluids
Protocol: The target concentration in each solution was 100 μM. […] The aqueous solutions were added (1 mL) to the dried samples and mixed at 400 rpm at 37° C. on an orbital plate shaker. […] Samples were prepared in triplicate. Testosterone and verapamil were used as reference compounds.

[3] = Solubility with cyclodextrins and co-agents; assay type: physicochemical; details: for solubility: aqueous with cosolvent or surfactant or cyclodextrin, thermodynamic from solid
Protocol: Additional solubility studies were undertaken using cyclodextrins, including α-cyclodextrin and a polyanionic β-cyclodextrin derivative with a sodium sulfonate salt separated from the lipophilic cavity by a butyl ether or sulfobutylether spacer group) (referred to herein as Captisol) in combination with a variety of co-agents.
Test samples were prepared with the indicated cyclodextrins and the compound of Example 1, both with and without additional agents. The test solutions were sonicated in a Fisher model 55 dismembrator (small probe) at its maximum setting of 5 for 90 seconds. The samples were rotated overnight at room temperature to allow equilibration. Quantitation was performed by comparison of the concentrations of the resulting solution of the compound 1 to a single point calibration curve using a solution of the reference standard.

[4] = Further solubility studies in solvents, mixtures and surfactants; assay type: physicochemical; details: thermodynamic from solid
Protocol: The solubility of the compound of Example 1 in a range of organic solvents, mixtures thereof, and some including surfactants, was measured. […] solubility assays were performed by the sequential addition of the compound of Example 1 to an appropriate organic solvent while stirring vigorously until a precipitate is formed. The resulting suspension is then shaken for 24 hours at room temperature, filtered and the resulting solution was analyzed by appropriate analytical method. Quantitation was performed by comparison of the concentrations of the resulting solution of the compound 1 to a single point calibration curve using a solution of the reference standard. The results are shown in Table 8, in which all percentages are expressed by weight of the total weight of excipients, i.e. excluding the active and the following abbreviations are used: […]

[5] = octanol-PBS pH 7.4 partition coefficient (log D7.4) assay; assay type: physicochemical; details: octanol/0.01 M phosphate buffer pH 7.4, 24 hours, LC/MS/MS
Protocol: A 1 μL volume of a 1 mM stock solution of the compound in dimethyl sulfoxide (DMSO) was added to 500 μL 0.01 M phosphate buffer pH 7.4 (saturated with octanol) and 500 μL of octanol (saturated with 0.01 M phosphate buffer). […] Samples were prepared in triplicate.

[6] = pKa by UV-metric and potentiometric titration; assay type: physicochemical
Source text: The pKa experiments have been performed by both UV-metric (in aqueous) and potentiometric method (in methanol cosolvents). Nine titrations have been performed for the compound, all from low to high pH (2.0-12.0).

[7] = Caco-2 bi-directional permeability, absence and presence of P-gp inhibitor verapamil; assay type: in vitro ADME; details: human; Caco-2, P-gp inhibitor absent
Protocol: (§1) The Caco-2 bi-directional permeability of the compound of Example 1 was evaluated in the absence and presence of a known P-gp inhibitor, verapamil.

[8] = system: Caco-2; assay: as above; assay type: in vitro ADME
Protocol: as §1

SMILES: C=Cc1cc(C(=O)Nc2ccc(C(=N)N)cc2)c(-c2ccc(C(=O)NCC3CC3)nc2C(=O)O)cc1OC [Example 1, 3-[2-(4-carbamimidoyl-phenylcarbamoyl)-5-methoxy-4-vinyl-phenyl]-6-(cyclopropylmethyl-carbamoyl)-pyridine-2-carboxylic acid]
- Saturated concentration of Example 1 ([1]; 3-[(3-Chloamidopropyl)-dimethylamino]-1-propanesulfate 1%): 0.66 mg/mL
- Saturated concentration of Example 1 ([1]; D-alpha-tocopheryl-polyethylene glycol 1000 succinate 12.3% (in PEG 400)): 7.8 mg/mL
- Saturated concentration of Example 1 ([1]; D-alpha-tocopheryl-polyethylene glycol 1000 succinate 20% (in PEG 400)): 20.8 mg/mL
- Saturated concentration of Example 1 ([1]; Lecithin 2% (in water)): 1.2 mg/mL
- Saturated concentration of Example 1 ([1]; Lecithin 4% (in PEG 400)): 3.3 mg/mL
- Saturated concentration of Example 1 ([1]; Lecithin 4% (in water)): 2.2 mg/mL
- Saturated concentration of Example 1 ([1]; Lecithin 10% (in PEG 400)): 10.6 mg/mL
- Saturated concentration of Example 1 ([1]; Lecithin 10% (in water)): 3.1 mg/mL
- Saturated concentration of Example 1 ([1]; Octadecyl amine 1% (in PEG 400)): 7.8 mg/mL and 7.1 mg/mL
- Saturated concentration of Example 1 ([1]; Palmitoyl-carnitine chloride 0.10% (in water)): 0.3 mg/mL
- Saturated concentration of Example 1 ([1]; dioctyl sodium sulfosuccinate 1% in PEG400): 1.72 mg/mL
- Saturated concentration of Example 1 ([1]; sodium lauryl sulphate 1% (in water)): 2.4 mg/mL
- Saturated concentration of Example 1 ([1]; sodium lauryl sulphate 2% (in water)): 4.7 mg/mL
- Saturated concentration of Example 1 ([1]; sodium lauryl sulphate 5% (in water)): 10 mg/mL
- solubility at 24 h ([2]; 37 °C, fassgf or other biorelevant, thermodynamic from solid, Observed Solubility, Target 100 μM, Fasted-State SGF, 24 hours): 109 µM
- solubility at 24 h ([2]; 37 °C, fassgf or other biorelevant, thermodynamic from solid, Observed Solubility, Target 100 μM, Fed-State SGF, 24 hours): 99 µM
- solubility at 24 h ([2]; 37 °C, fassif, thermodynamic from solid, Observed Solubility, Target 100 μM, Fasted-State SIF, 24 hours): 111 µM
- solubility at 24 h ([2]; 37 °C, fessif, thermodynamic from solid, Observed Solubility, Target 100 μM, Fed-State SIF, 24 hours): 119 µM
- solubility at 24 h ([2]; 37 °C, pH 7.4, aqueous buffer, thermodynamic from solid, Observed Solubility, Target 100 μM, 0.1M phosphate buffer pH 7.4, 37° C., 24 hours): 118 µM
- solubility at 24 h ([2]; solubility, aqueous/physiological fluids): 100 µg/mL
- solubility ([3]; Captisol 150 mM with DMSO 10%, Captisol 150 mM, DMSO 10%): 3980 µg/mL
- solubility ([3]; Captisol 150 mM with ethanol 10%, Captisol 150 mM, Ethanol 10%): 3550 µg/mL
- solubility ([3]; Captisol 150 mM with propylene glycol 10%, Captisol 150 mM, Propylene glycol 10%): 3300 µg/mL
- solubility ([3]; Captisol 150 mM with sodium dodecyl sulphate 100 mg, Captisol 150 mM, Sodium dodecyl sulphate 100 mg): 240 µg/mL
- solubility ([3]; Captisol (sulfobutylether β-cyclodextrin) solution, Captisol 150 mM, no co-solvent): 7610 µg/mL
- solubility ([3]; Captisol solution with co-agent, Captisol 150 mM, HPMC E-5 0.25%): 4160 µg/mL
- solubility ([3]; Captisol solution with co-agent, Captisol 150 mM, Polyethylene glycol 400 10%): 5460 µg/mL
- solubility in cyclodextrins ([3]; with and without co-agents): not soluble in cyclodextrins
- solubility ([3]; α-cyclodextrin 150 mM with DMSO 10%, α-cyclodextrin 150 mM, DMSO 10%): 11100 µg/mL
- solubility ([3]; α-cyclodextrin 150 mM with ethanol 10%, α-cyclodextrin 150 mM, Ethanol 10%): 270 µg/mL
- solubility ([3]; α-cyclodextrin 150 mM with propylene glycol 10%, α-cyclodextrin 150 mM, Propylene glycol 10%): 4980 µg/mL
- solubility ([3]; α-cyclodextrin solution with co-agent, α-cyclodextrin 150 mM, HPMC E-5 0.25%): 9950 µg/mL
- solubility ([3]; α-cyclodextrin solution with co-agent, α-cyclodextrin 150 mM, Polyethylene glycol 400 10%): 5000 µg/mL
- solubility ([3]; α-cyclodextrin solution with co-agent, α-cyclodextrin 150 mM, Sodium dodecyl sulphate 100 mg): 10000 µg/mL
- solubility ([3]; α-cyclodextrin solution, α-cyclodextrin 150 mM, no co-solvent): 10000 µg/mL
- solubility at 24 h ([4]; 2.5% SLS in 97.5% PEG400, organic solvent or mixture, 2.5% SLS in 97.5% PEG400, read-out: Example 1 Solubility After 24 hrs): 31300 µg/mL (≈ 60.9 mM)
- solubility at 24 h ([4]; 2.5% SLS in 97.5% PEG600, organic solvent or mixture, 2.5% SLS in 97.5% PEG600, read-out: Example 1 Solubility After 24 hrs): 25900 µg/mL (≈ 50.4 mM)
- solubility at 24 h ([4]; 2.5% SLS in 97.5% PG, organic solvent or mixture, 2.5% SLS in 97.5% PG, read-out: Example 1 Solubility After 24 hrs): > 100000 µg/mL
- solubility at 24 h ([4]; 2.5% SLS/8% EtOH/10% PG in 79.5% PEG600, organic solvent or mixture, 2.5% SLS/8% EtOH/10% PG in 79.5% PEG600, read-out: Example 1 Solubility After 24 hrs): 57300 µg/mL (≈ 112 mM)
- solubility at 24 h ([4]; 6% EtOH/15% glycerin/79% water containing 0.3% Tween80, aqueous with cosolvent or surfactant or cyclodextrin, 6% EtOH/15% glycerin/79% water containing 0.3% Tween80, read-out: Example 1 Solubility After 24 hrs): 300 µg/mL (≈ 0.584 mM)
- solubility at 24 h ([4]; 6% EtOH/15% glycerin/79% water, aqueous with cosolvent or surfactant or cyclodextrin, 6% EtOH/15% glycerin/79% water, read-out: Example 1 Solubility After 24 hrs): 70 µg/mL (≈ 0.136 mM)
- solubility at 24 h ([4]; 8% EtOH/10% PG in 82% PEG600, organic solvent or mixture, 8% EtOH/10% PG in 82% PEG600, read-out: Example 1 Solubility After 24 hrs): 61000 µg/mL (≈ 119 mM)
- solubility at 24 h ([4]; 10% EtOH in 90% PEG400, organic solvent or mixture, 10% EtOH in 90% PEG400, read-out: Example 1 Solubility After 24 hrs): 61400 µg/mL (≈ 120 mM)
- solubility at 24 h ([4]; 10% EtOH in 90% PEG600, organic solvent or mixture, 10% EtOH in 90% PEG600, read-out: Example 1 Solubility After 24 hrs): 61400 µg/mL (≈ 120 mM)
- solubility at 24 h ([4]; 10% EtOH with 90% PG, organic solvent or mixture, 10% EtOH with 90% PG, read-out: Example 1 Solubility After 24 hrs): > 100000 µg/mL
- solubility at 24 h ([4]; 20% PG in 80% PEG400, organic solvent or mixture, 20% PG in 80% PEG400, read-out: Example 1 Solubility After 24 hrs): 52900 µg/mL (≈ 103 mM)
- solubility at 24 h ([4]; 20% PG in 80% PEG600, organic solvent or mixture, 20% PG in 80% PEG600, read-out: Example 1 Solubility After 24 hrs): 52400 µg/mL (≈ 102 mM)
- solubility at 24 h ([4]; PG/PEG mixtures, organic solvent or mixture, some PG/PEG mixtures, read-out: solubility): 50000 to 60000 µg/mL (≈ 97.4 to 117 mM)
- solubility at 24 h ([4]; mixtures of 90% or more propylene glycol, organic solvent or mixture, some mixtures composed of 90% or more propylene glycol, read-out: solubility): > 100000 µg/mL
- solubility at 24 h ([4]; propylene glycol, organic solvent or mixture, Propylene Glycol, read-out: Example 1 Solubility After 24 hrs): > 150000 µg/mL
- solubility at 24 h ([4]; propylene glycol, organic solvent or mixture, propylene glycol (PG), read-out: solubility): 150000 µg/mL (≈ 292 mM)
- logD at 24 h [5]: 1.9
- pKa ([6]; aqueous (UV-metric), methanol cosolvents (potentiometric), no higher pKa observed by potentiometric method, read-out: higher pKa as reported): > 11
- pKa ([6]; aqueous (UV-metric), methanol cosolvents (potentiometric), no lower pKa observed by potentiometric method, read-out: lower pKa as reported): < 3
- pKa ([6]; aqueous, UV-metric method, aqueous, read-out: lower pKa): 2.31 ± 0.15
- Papp A→B [7]: 0.5 ×10⁻⁶ cm/s
- Papp B→A [7]: 0.5 ×10⁻⁶ cm/s
- efflux ratio [7]: 0.9
- permeability class ([8]; Caco-2 bi-directional): low permeability compound
- P-gp substrate ([8]; Caco-2 with and without verapamil): does not appear to be a substrate of P-gp
